From patent US11136320B2, “Fused ring derivative used as FGFR4 inhibitor” (JACOBIO PHARMACEUTICALS CO., LTD., priority 2019, dated 2021)
pIC50: −log10 of the molar value.

Assays:
[1] = PK analysis of rats; type: in vivo; details: SD rats, p.o. (10 mg/kg)
[2] = test system: Hepatoma cell Hep3B (high expression of FGFR4 and FGF19); experiment: Hepatoma cell proliferation inhibition experiment (MTS method); type: cell-based
[3] = target: T1, FGFR4 kinase (Homo sapiens (Human), UniProt P22455)
[4] = target: T1, FGFR4 kinase; experiment: biochemical
[5] = test system: Hep3B; experiment: Pharmacodynamic in vivo, Hep3B model tumor growth inhibition; set-up: species or system NOD-SCID mice
Excerpt: The Hep3B cell line was purchased from ATCC; MEM cell culture medium, fetal bovine serum, and trypsin were purchased from Gibco; cell culture flasks were purchased from Greiner; and disposable Cell Counting Plate and taittinger Blue Solution Purchased from Bio-Rad. The disposable sterile syringe was purchased from Changzhou Jinlong Medical Plastic Instrument Co., Ltd, eye surgical scissors and eye surgical forceps were purchased from Shanghai Medical Instrument (Group) Co., Ltd. Surgical Instrument Factory, and 6-8 week old female NOD-SCID mice were purchased from Vitalivar.
a. One strain of Hep3B cells was taken out from the cell bank and MEM medium (MEM+10% FBS+1% PS) was used to recover the cells. The resuscitated cells were placed in a cell culture flask (the wall the flask was marked with the cell type, date, cultivator's name), and the cell culture flask was placed in a CO2 incubator (the temperature of the incubator was 37° C. and the CO2 concentration of the incubator was 5%);
b. When the cells covered about 90% of the bottom of the culture flask, passage was conducted. the cells were continued to cultivate in a CO2 incubator after passage. The above process was repeated until the number of the cell satisfied the requirements of pharmacodynamic in vivo;
c. The cultured cells were collected and counted using a BIO-Rad TC20 cell counter. According to the counting results, the cultured cells were resuspended with PBS and matrix gel (1:1) to obtain a cell suspension (density 5×10^7/ml), and the cell suspension was placed in an ice box for later use.
a. The cells were mixed well before seeding, and 0.5 ml of cell suspension was taken with a 1 ml syringe and bubbles in the cell suspension were removed. The syringe with the cell suspension was place on an ice pack for later use.
b. The NOD-SCID mice were set with the left hand, and the skin on the right back of the mice was disinfected with 75% alcohol. The inoculation was beginning after 30 seconds.
c. During inoculation, 1 mL syringe was on the right hand, and the cell suspension of Hep3B was inoculated subcutaneously into the right shoulder of the right back of the mouse at 0.1 mL/mouse. At inoculation interval, the syringe was placed on an ice pack and the mice were inoculated sequentially.
d. According to the tumor growth, the tumor was measured and the tumor size was calculated on the 12-15 days after inoculation.
Tumor volume calculation: tumor volume (mm^3)=length (mm)×width (mm)×width (mm)/2
e. When the tumors grew to an average volume of 100-150 mm^3, the mice were randomly divided into two groups according to tumor size and the weight of the mouse. […]
f. […] Tumors were measured and the mice were weighed twice a week after administration. […]

T1 sequence (P22455 22-802): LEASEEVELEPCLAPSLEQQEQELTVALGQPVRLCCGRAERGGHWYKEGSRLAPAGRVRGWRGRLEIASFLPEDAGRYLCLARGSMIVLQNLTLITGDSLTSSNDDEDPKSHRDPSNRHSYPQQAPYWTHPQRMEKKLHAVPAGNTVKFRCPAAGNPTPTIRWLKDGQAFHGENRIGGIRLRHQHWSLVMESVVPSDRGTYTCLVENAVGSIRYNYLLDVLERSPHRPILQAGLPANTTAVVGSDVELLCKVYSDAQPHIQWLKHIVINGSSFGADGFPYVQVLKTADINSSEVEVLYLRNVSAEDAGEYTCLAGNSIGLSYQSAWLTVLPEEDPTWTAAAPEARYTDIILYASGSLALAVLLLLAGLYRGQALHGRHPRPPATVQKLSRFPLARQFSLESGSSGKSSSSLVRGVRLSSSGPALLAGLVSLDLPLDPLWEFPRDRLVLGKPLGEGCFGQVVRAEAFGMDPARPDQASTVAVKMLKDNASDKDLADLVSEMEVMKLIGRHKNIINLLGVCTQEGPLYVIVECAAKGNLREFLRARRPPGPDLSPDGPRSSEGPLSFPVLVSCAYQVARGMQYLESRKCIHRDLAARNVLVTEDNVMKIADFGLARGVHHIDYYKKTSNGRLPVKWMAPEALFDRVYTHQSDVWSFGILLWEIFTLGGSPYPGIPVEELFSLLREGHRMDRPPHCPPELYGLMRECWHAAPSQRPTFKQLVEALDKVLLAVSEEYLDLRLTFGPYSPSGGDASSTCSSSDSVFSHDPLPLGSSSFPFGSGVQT

Q: For `CSC[C@@H](C)Nc1cc(NC(=O)N2CCCc3cc(CN4CCN(C)CC4=O)c(C=O)nc32)ncc1C#N` [Compound 4, (R)—N-(5-Cyano-4-((1-(methylthio)propan-2-yl)amino)pyridin-2-yl)-7-formyl-6-((4-methyl-2-oxopiperazin-1-yl)methyl)-3,4-dihydro-1,8-naphthyridine-1 (2H)-carboxamide], which “exposure amount AUC0-24 h and maximum drug concentration in blood Cmax compared with the reference compound” value [1] is on record?
A: significantly higher than the reference compound

Q: And the AUC(0-t) ([1]; rat, plasma, po, read-out: Curve area AUC0-24 h)?
A: 4670 ng·h/mL

Q: And the Cmax ([1]; rat, plasma, po, read-out: Drug concentration in blood Cmax)?
A: 1450 ng/mL

Q: What about the “inhibitory effect on Hepatoma cell Hep3B compared with the reference compound” value [2] of the same compound?
A: better inhibitory effect

Q: And the IC50 ([2]; Homo sapiens, Hep3B, 120 h incubation, read-out: Hep3B(IC50 μM))?
A: 0.014 µM

Q: And the “inhibitory effect on FGFR4 compared with the reference compound” value [3]?
A: better inhibitory effect on FGFR4 than the reference compound

Q: And the pIC50 [4]?
A: 8.85

Q: What about the antitumor effect [5] of the same compound?
A: excellent antitumor effect

Q: And the “effect of 15 mg/kg BID compared with 60 mg/kg QD of the reference compound” value [5]?
A: equivalent

Q: What about the TGI % ([5]; 15 mg/kg BID, gavage) of the same compound?
A: 96.7%
